What was measured:
5-LO [1] = biological target: T1, 5-LO (Homo sapiens, UniProt P09917); assay: test b) in vitro heparinised human blood, A23187 challenge, LTB4 radioimmunoassay; assay type: cell-based
T1 construct: incubating a test compound with heparinised human blood; endogenous in cells; host or cells: blood cells in heparinised human blood
T1 sequence (P09917 1-674): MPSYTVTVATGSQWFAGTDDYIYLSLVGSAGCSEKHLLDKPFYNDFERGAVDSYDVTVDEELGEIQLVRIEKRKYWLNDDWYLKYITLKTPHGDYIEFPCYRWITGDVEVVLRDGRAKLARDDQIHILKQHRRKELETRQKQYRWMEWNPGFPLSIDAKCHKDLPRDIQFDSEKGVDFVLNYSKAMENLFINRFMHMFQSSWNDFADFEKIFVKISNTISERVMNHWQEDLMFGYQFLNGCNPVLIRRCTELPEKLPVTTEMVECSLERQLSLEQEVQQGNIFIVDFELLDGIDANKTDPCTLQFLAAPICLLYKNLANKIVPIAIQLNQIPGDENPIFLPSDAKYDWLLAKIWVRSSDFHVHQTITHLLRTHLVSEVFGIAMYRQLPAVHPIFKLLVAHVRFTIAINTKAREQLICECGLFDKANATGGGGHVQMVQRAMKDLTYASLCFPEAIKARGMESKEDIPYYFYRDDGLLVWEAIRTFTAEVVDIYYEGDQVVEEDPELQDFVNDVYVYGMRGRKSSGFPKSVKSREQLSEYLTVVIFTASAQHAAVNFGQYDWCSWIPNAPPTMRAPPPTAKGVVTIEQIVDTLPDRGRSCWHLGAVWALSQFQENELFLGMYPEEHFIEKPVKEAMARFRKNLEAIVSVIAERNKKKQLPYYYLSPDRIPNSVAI
Protocol: b) An in vitro assay system involving incubating a test compound with heparinised human blood, prior to challenge with the calcium ionophore A23187 and then indirectly measuring the inhibitory effects on 5-LO by assaying the amount of LTB4 using the specific radioimmunoassay described by Carey and Forder (F. Carey and R. A. Forder, Brit. […] This test provides an indication of the effects of a test compound against 5-LO and also cyclooxygenase in the presence of blood cells and proteins. It permits the selectivity of the inhibitory effect on 5-LO or cyclooxygenase to be assessed.

5-LO [2] = biological target: T2, 5-LO (Rattus norvegicus, UniProt P12527); assay: test c) ex vivo assay, oral administration, blood collection, A23187 challenge, radioimmunoassay of LTB4; assay type: in vivo
T2 construct: blood collection, heparinisation, challenge with A23187 and radioimmunoassay of LTB4 and TxB2; endogenous in cells
T2 sequence (P12527 1-673): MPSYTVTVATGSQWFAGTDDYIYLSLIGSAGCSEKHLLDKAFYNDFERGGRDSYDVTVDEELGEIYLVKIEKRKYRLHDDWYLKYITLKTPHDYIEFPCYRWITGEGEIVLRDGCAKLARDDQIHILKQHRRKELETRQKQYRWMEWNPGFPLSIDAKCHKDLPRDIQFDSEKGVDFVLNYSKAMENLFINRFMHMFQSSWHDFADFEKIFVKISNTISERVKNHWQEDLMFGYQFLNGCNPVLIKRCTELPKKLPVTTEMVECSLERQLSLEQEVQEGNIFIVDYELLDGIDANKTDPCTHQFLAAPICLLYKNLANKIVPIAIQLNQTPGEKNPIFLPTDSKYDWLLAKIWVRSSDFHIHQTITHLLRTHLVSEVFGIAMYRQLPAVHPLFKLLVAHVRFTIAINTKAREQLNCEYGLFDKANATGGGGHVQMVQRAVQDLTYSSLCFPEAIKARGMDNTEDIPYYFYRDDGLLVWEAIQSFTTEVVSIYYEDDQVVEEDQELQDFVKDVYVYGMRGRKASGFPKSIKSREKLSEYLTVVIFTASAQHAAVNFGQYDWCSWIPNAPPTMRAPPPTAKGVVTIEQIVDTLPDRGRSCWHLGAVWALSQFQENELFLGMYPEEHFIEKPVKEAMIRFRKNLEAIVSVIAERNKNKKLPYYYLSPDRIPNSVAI
Protocol: c) An ex vivo assay system, which is a variation of test b) above, involving administration of a test compound (usually orally as the suspension produced when a solution of the test compound in dimethylsulphoxide is added to carboxymethylcellulose), blood collection, heparinisation, challenge with A23187 and radioimmunoassay of LTB4 and TxB2. This test provides an indication of the bioavailability of a test compound as an inhibitor of 5-LO or cyclooxygenase.

cyclooxygenase = biological target: T3, cyclooxygenase (Homo sapiens, UniProt P23219); assay: test b) in vitro heparinised human blood, A23187 challenge, TxB2 radioimmunoassay; assay type: cell-based
T3 construct: incubating a test compound with heparinised human blood; endogenous in cells; host or cells: blood cells (platelets by own knowledge) in heparinised human blood
T3 sequence (P23219 24-599): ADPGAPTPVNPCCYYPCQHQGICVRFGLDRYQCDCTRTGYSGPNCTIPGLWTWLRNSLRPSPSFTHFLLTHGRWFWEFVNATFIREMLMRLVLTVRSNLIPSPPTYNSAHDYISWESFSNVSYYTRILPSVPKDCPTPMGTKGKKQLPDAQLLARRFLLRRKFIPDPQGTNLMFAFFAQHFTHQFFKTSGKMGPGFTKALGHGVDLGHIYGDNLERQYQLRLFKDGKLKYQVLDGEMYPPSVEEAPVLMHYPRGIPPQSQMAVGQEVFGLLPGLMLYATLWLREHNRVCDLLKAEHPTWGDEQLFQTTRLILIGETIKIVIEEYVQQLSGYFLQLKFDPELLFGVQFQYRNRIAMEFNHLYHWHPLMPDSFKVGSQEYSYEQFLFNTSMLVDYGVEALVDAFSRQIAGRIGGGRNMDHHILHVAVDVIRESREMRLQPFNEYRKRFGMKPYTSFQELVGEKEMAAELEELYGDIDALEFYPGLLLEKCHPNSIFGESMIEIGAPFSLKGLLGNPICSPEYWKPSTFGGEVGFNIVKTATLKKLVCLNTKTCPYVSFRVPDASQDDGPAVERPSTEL
Protocol: As stated previously, the heterocyclic derivatives of the formula I are inhibitors of the enzyme 5-LO.
b) An in vitro assay system involving incubating a test compound with heparinised human blood, prior to challenge with the calcium ionophore A23187 and then indirectly measuring the inhibitory effects on 5-LO by assaying the amount of LTB4 using the specific radioimmunoassay described by Carey and Forder (F. Carey and R. A. Forder, Brit. J. Pharmacol. 1985, 84, 34P) which involves the use of a protein-LTB4 conjugate produced using the procedure of Young et alia (Prostaglandins, 1983, 26(4), 605-613). The effects of a test compound on the enzyme cyclooxygenase (which is involved in the alternative metabolic pathway for arachidonic acid and gives rise to prostaglandins, thromboxanes and related metabolites) may be measured at the same time using the specific radioimmunoassay for thromboxane B2 (TxB2) described by Carey and Forder (see above). This test provides an indication of the effects of a test compound against 5-LO and also cyclooxygenase in the presence of blood cells and proteins. It permits the selectivity of the inhibitory effect on 5-LO or cyclooxygenase to be assessed.

COC1(c2cccc(OCc3ccc4ccccc4c3)c2)CCOCC1 [4-methoxy-4-[3-(naphth-2-ylmethoxy)phenyl]tetrahydropyran]
IC50 (5-LO [1]): 100 nM
ED50 (5-LO [2]): 5 mg/kg
IC50 (cyclooxygenase): > 40000 nM

— patent US5098930A, “Heterocyclic derivatives” (Imperial Chemical Industries PLC, priority 1988, dated 1992)
